Laboratory results from US10988477B2 (Merck Patent GmbH, priority 2018, dated 2021).
One block for each molecule: values may come before it.

How the values were obtained:
GCN2 kinase = GCN2 kinase (Homo sapiens, UniProt Q9P2K8); experiment: GCN2 enzyme inhibition assay (Transcreener ADP2 fluorescence polarization); type: biochemical; conditions: 280 μM ATP
In short: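 Human GCN2 (4 nM) preincubated 10 min with compound (0–8 μM) and 200 μM (RS)7 peptide in Tris-HCl pH 7.5, NaCl, MgCl2, DTT. Reaction started with 280 μM ATP, run 1 h at 25 °C. ADP detected by Transcreener fluorescence polarization. IC50 and Ki(app) fitted by tight-binding algorithm.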

[1] = target: intracellular GCN2 (phosphorylation of the GCN2 substrate eIF2α) (Homo sapiens, UniProt Q9P2K8); experiment: GCN2 cellular inhibition assay (AlphaScreen SureFire P-eIF2α Ser51, borrelidin-treated U2OS cells); type: cell-based; conditions: biomarker assay, phosphorylated eIF2α Ser51 in borrelidin-treated U2OS cells
In short: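 Compound effect on GCN2 is gauged by eIF2α Ser51 phosphorylation in borrelidin-challenged U2OS cells (10 μM, 1 h). Top compound level is 40 μM final.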

[2] = compounds of Formula II, 4 nM GCN2 kinase
[3] = Enzyme activity for compounds of Formula IV, Ki(app), 25° C.

Sequence of GCN2 kinase (Q9P2K8 whole entry): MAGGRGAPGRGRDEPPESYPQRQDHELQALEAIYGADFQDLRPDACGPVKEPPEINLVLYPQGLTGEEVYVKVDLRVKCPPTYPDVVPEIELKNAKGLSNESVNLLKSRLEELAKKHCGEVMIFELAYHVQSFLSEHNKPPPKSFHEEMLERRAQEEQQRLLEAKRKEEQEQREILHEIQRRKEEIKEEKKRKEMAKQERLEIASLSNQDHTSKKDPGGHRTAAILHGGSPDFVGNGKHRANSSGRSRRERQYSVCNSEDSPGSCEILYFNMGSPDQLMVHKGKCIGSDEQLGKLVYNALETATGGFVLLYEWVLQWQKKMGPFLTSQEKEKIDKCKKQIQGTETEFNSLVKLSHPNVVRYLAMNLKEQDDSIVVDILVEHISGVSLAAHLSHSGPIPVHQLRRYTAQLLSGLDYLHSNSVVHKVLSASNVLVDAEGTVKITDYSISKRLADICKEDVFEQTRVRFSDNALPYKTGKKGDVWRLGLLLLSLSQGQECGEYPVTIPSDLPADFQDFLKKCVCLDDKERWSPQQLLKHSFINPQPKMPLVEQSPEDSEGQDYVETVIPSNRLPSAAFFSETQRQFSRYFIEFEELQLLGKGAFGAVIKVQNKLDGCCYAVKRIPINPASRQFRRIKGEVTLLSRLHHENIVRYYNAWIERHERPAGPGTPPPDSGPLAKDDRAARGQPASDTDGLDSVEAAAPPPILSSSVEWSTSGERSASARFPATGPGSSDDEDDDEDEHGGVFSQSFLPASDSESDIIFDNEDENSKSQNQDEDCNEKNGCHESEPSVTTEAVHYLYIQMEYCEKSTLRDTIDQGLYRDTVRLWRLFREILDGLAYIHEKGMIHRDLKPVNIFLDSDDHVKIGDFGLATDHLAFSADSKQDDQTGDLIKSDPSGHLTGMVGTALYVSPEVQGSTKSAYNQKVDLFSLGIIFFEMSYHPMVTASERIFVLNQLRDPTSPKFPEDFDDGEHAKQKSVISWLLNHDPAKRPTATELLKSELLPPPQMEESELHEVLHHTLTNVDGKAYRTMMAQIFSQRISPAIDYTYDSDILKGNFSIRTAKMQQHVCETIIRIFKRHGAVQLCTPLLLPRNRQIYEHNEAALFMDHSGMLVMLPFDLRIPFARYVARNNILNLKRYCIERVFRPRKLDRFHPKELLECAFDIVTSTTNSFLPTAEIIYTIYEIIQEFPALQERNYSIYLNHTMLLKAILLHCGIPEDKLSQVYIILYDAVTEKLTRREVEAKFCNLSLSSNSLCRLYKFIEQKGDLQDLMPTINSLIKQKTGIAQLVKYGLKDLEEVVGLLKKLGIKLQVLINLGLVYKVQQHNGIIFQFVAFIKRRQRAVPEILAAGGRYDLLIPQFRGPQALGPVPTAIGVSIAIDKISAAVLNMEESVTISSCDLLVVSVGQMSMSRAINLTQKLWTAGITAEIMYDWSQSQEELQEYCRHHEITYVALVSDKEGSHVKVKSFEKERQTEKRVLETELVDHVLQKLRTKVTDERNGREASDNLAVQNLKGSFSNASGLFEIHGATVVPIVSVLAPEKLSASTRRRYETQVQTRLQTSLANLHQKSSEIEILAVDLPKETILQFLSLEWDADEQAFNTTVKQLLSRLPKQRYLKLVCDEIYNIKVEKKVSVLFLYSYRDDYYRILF
Sequence of intracellular GCN2 (phosphorylation of the GCN2 substrate eIF2α) (Q9P2K8 whole entry): as above

Compound: CN1CCN(c2cc(-c3cnc4ccc(C(F)F)nn34)ccn2)CC1CNS(C)(=O)=O (centres unmarked) [II-98, N-((4-(4-(6-(Difluoromethyl)imidazo[1,2-b]pyridazin-3-yl)pyridin-2-yl)-1-methylpiperazin-2-yl)methyl)methanesulfonamide]
Ki (GCN2 kinase; [2]): 10 to 1000 nM | IC50 ([1]; compounds of Formula II): 500 to 5000 nM

Compound: NS(=O)(=O)NCC1CCCN(c2cc(-c3cnc4ccc(C(F)F)nn34)ncn2)C1 (single isomer, unassigned) [II-278]
Ki (GCN2 kinase; [2]): < 10 nM | IC50 ([1]; compounds of Formula II): < 500 nM

Compound: CS(=O)(=O)NC1CCC2(CCN(c3cc(-c4cnc5ccc(C(F)F)nn45)ncn3)C2)C1 (single isomer, unassigned) [II-100, N-(2-(6-(6-(Difluoromethyl)imidazo[1,2-b]pyridazin-3-yl)pyrimidin-4-yl)-2-azaspiro[4.4]nonan-7-yl)methanesulfonamide]
Ki (GCN2 kinase; [2]): 10 to 1000 nM | IC50 ([1]; compounds of Formula II): 500 to 5000 nM

Compound: FC(F)(F)c1ccc2ncc(-c3ccnc(N4CCOC(c5cn[nH]c5)C4)c3)n2n1 (single isomer, unassigned) [II-229, 2-(1H-Pyrazol-4-yl)-4-(4-(6-(trifluoromethyl)imidazo[1,2-b]pyridazin-3-yl)pyridin-2-yl)morpholine]
Ki (GCN2 kinase; [2]): < 10 nM | IC50 ([1]; compounds of Formula II): < 500 nM

Compound: CC1(F)CCN(c2cc(-c3cnc4ccc(C(F)F)nn34)ncn2)CC1CNS(C)(=O)=O (single isomer, unassigned) [II-388, N-((1-(6-(6-(Difluoromethyl)imidazo[1,2-b]pyridazin-3-yl)pyrimidin-4-yl)-4-fluoro-4-methylpiperidin-3-yl)methyl)methanesulfonamide]
Ki (GCN2 kinase; [2]): 10 to 1000 nM | IC50 ([1]; compounds of Formula II): 500 to 5000 nM

Compound: CS(=O)(=O)NC1(C2CCN(c3cc(-c4cnc5ccc(C(F)F)nn45)ncn3)C2)CC1 (centres unmarked) [II-439, N-(1-(1-(6-(6-(Difluoromethyl)imidazo[1,2-b]pyridazin-3-yl)pyrimidin-4-yl)pyrrolidin-3-yl)cyclopropyl)methanesulfonamide]
Ki (GCN2 kinase; [2]): 10 to 1000 nM | IC50 ([1]; compounds of Formula II): 500 to 5000 nM

Further lines, results first:

Ki (GCN2 kinase; [3]): < 10 nM | IC50 ([1]; compounds of Formula IV): < 500 nM
Compound: CC(C)(O)C1CC(c2cn[nH]c2)CN(c2ccnc(-c3cnc4cnc(C(F)(F)F)cn34)n2)C1 (single isomer, unassigned) [IV-684, 2-(5-(1H-Pyrazol-4-yl)-1-(2-(6-(trifluoromethyl)imidazo[1,2-a]pyrazin-3-yl)pyrimidin-4-yl)piperidin-3-yl)propan-2-ol]

Ki (GCN2 kinase; [3]): < 10 nM | IC50 ([1]; compounds of Formula IV): 500 to 5000 nM
Compound: Brc1cn2c(-c3nccc(N4CCCC(c5c[nH]cn5)C4)n3)cnc2cn1 (centres unmarked) [IV-340, 3-(4-(3-(1H-Imidazol-4-yl)piperidin-1-yl)pyrimidin-2-yl)-6-bromoimidazo[1,2-a]pyrazine]

Ki (GCN2 kinase; [3]): 10 to 100 nM | IC50 ([1]; compounds of Formula IV): 500 to 5000 nM
Compound: CC1CN(c2ccnc(-c3cnc4cnc(C(F)(F)F)cn34)n2)CC(c2cn[nH]c2)N1C (centres unmarked) [IV-195, 3-(4-(3,4-Dimethyl-5-(1H-pyrazol-4-yl)piperazin-1-yl)pyrimidin-2-yl)-6-(trifluoromethyl)imidazo[1,2-a]pyrazine]

Ki (GCN2 kinase; [3]): 100 to 1000 nM | IC50 ([1]; compounds of Formula IV): > 5000 nM
Compound: N#CCC1CCCN(c2ccnc(-c3cnc4cnc(C(F)F)cn34)n2)C1 (centres unmarked) [IV-82, 2-(1-(2-(6-(Difluoromethyl)imidazo[1,2-a]pyrazin-3-yl)pyrimidin-4-yl)piperidin-3-yl)acetonitrile]

Ki (GCN2 kinase; [3]): 100 to 1000 nM | IC50 ([1]; compounds of Formula IV): > 5000 nM
Compound: CC1CC(CS(C)(=N)=O)C(C)N(c2ccnc(-c3cnc4cnc(C(F)F)cn34)n2)C1 (single isomer, unassigned) [IV-368, ((1-(2-(6-(Difluoromethyl)imidazo[1,2-a]pyrazin-3-yl)pyrimidin-4-yl)-2,5-dimethylpiperidin-3-yl)methyl)(imino)(methyl)-λ^6-sulfanone]

Ki (GCN2 kinase; [3]): 10 to 100 nM | IC50 ([1]; compounds of Formula IV): 500 to 5000 nM
Compound: FC(F)(F)c1cn2c(-c3nccc(N4CCOC(c5cn[nH]c5)C4)n3)cnc2cn1 (single isomer, unassigned) [IV-7, 2-(1H-Pyrazol-4-yl)-4-(2-(6-(trifluoromethyl)imidazo[1,2-a]pyrazin-3-yl)pyrimidin-4-yl)morpholine]

Ki (GCN2 kinase; [3]): > 1000 nM | IC50 ([1]; compounds of Formula IV): > 5000 nM
Compound: O=C(N[C@H]1CCCN(c2ccnc(-c3cnc4cnc(C(F)(F)F)cn34)n2)C1)c1cn[nH]c1 [IV-733]
